Experimental data: patent US10905680B2, “Methods of treatment for cholestatic and fibrotic diseases” (Genfit, priority 2016, dated 2021)

Assays:
[1] = system: HSC; test: Toxicity assays in HSC; format: cell-based, human; settings: data not shown
[2] = system: human primary hepatic stellate cells (hHSC); test: TGFβ1-induced expression of α-SMA protein in human HSC (ELISA); format: cell-based; settings: Homo sapiens, 1 h preincubation, TGFβ1 1 ng/ml, 48 hours, read-out: IC50 (level of α-SMA in TGFβ-induced HSCs)
Description: Serum-deprived HSC were preincubated for 1 hour with NTZ (A) or TZ (B) before the activation with the profibrogenic cytokine TGFβ1 (1 ng/ml). After 48 hours of incubation, the expression of α-SMA was measured by ELISA. The obtained values were transformed into percentage inhibition over TGFβ1 control. Data are presented as mean (triplicates)±standard deviation (SD). Statistical analyses were performed by one-way ANOVA followed by Bonferroni post-hoc tests, using Sigma Plot 11.0 software. [*: p<0.05; **: p<0.01; ***: p<0.001 (comparison versus TGFβ1 1 ng/mL group)]. The curve fitting and the calculation of half maximal inhibitory concentration (IC50) were performed with XLFit software 5.3.1.3. The human primary hepatic stellate cells (hHSC) (Innoprot) were cultured in STeCM medium (ScienCell cat #5301) that was supplemented with 2% fetal bovine serum (FBS, ScienCell cat #0010), 1% penicillin/streptomycin (ScienCell cat #0503) and stellate cell growth supplement (SteCGS; ScienCell cat #5352). Cell culture flasks were coated with Poly-L Lysine (Sigma cat # P4707) for a better adherence. The human primary hepatic stellate cells (hHSC) (Innoprot) were cultured under standard conditions, as described above. The cells were subsequently plated at a density of 7×10^4 cells/well into 24-well plates for gene expression studies, and at a density of 2×10^4 cells/well into 96-well plates for the measure of α-SMA by ELISA. The next day, cell culture medium was removed, and cells were washed with PBS (Invitrogen cat #14190). hHSC were deprived for 24 hours in serum-free and SteCGS-free medium. For the treatments with NTZ or TZ, the serum-deprived hHSC were preincubated for 1 hour with the compounds followed by the addition of the profibrogenic stimuli TGFβ1 (PeproTech cat #100-21, 1 ng/mL) in serum-free and SteCGS-free medium for an additional 24 or 48 hour period (the timepoint is indicated in the figure legends). […] The level of α-SMA was measured using a Sandwich ELISA. […]

SMILES: CC(=O)Oc1ccccc1C(=O)Nc1ncc([N+](=O)[O-])s1 [NTZ, [2-[(5-nitro-1,3-thiazol-2-yl)carbamoyl]phenyl]ethanoate, reference compound]
- toxicity or apoptosis of HSC [1]: not due to toxicity or apoptosis
- IC50 [2]: 100 to 3000 nM
